The source of these data is patent US20180078576A1, “SULPHATED XYLANS FOR TREATMENT OR PROPHYLAXIS OF RESPIRATORY DISEASES” (Paradigm Biopharmaceuticals Limited, priority 2007, published 2018).

The target of one series is T1, eotaxin-2 (Homo sapiens, UniProt O00175).
T1 sequence (O00175 27-119): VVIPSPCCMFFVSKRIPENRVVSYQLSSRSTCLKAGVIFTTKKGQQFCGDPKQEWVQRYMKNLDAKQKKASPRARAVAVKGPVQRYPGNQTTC
The series is described as follows: BIAcore inhibition of eotaxin-2 binding to immobilized heparin. The note with it: BIAcore chip, FIG. 3E. The text has this:
The optical phenomenon of surface plasmon resonance is used to monitor physical interactions between molecules. Passing a solution of a potential protein ligand (e.g. IL-4, IL-5 or eotaxin) over a sensor surface to which a target (e.g. heparin) is coupled monitors the real-time binding of protein ligands to the immobilized target. Detection is achieved by measuring refractive index changes very close to the sensor surface. When the refractive index is altered, the angle at which plasmon resonance occurs changes and this change directly correlates with the amount of protein interacting with the surface. A BIAcore 2000 is conveniently used. […]
Biotinylated heparin is immobilized on the biosensor chip. […] Solutions containing potential protein ligands of interest are injected over the sensor chip surface, and the binding is measured in real time (Fernig, In: Proteoglycan protocols, Ed. R. V. Iozzo, Humana Press, Totowa, N.J., USA, 2001). Baculovirus expressed recombinant human IL-4 (rhIL-4) and baculovirus expressed recombinant human IL-5 (rhIL-5) readily bind to heparin immobilized by this method (see PCT/AU2005/000551). […] Similarly, recombinant human eotaxin (CCL11) expressed in E. coli binds readily to immobilized heparin and binding is specific as there is little eotaxin binding to sensor chips lacking heparin. […]
A general note: Surface plasmon resonance follows binding to a sensor surface in real time, without labels.

A further series concerns the target T2, Elastase (Homo sapiens, UniProt P08246).
T2 sequence (P08246 30-267): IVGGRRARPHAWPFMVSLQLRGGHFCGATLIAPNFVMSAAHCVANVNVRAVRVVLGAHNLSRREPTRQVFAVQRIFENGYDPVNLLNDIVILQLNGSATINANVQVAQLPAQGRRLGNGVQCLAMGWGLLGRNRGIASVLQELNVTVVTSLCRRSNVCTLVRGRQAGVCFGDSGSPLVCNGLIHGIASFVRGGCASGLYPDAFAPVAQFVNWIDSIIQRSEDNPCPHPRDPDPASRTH
Description: Elastase activity on collagen substrate. The format is biochemical. The note with it: collagen coated wells, 37° C., 30 minutes. How it is done: Elastase activity was also measured using a physiological substrate, collagen. For these experiments collagen was coated onto the wells of a microplate. Tris buffer (50 μl) was added together with 25 μl of either inhibitor (PPS or other sulfated polysaccharides) or buffer. The plate was incubated at 37° C. for 30 minutes, before staining the wells for protein. After drying the wells at room temperature the remaining colour was dissolved by adding 200 μl of lysis solution (10% w/v SDS in DMSO) and the OD measured at […]. Control experiments include collagen without enzyme digestion as 100% values and with enzyme digestion but without inhibitor as 0% values.

Series [1] deals with Guinea-pigs sensitized to ovalbumin. The series is described as follows: Guinea pig model of asthma, airway hyper-reactivity 24 h after OVA challenge. The class given is in vivo. The note with it: for Cdyn, % increase from that of the positive control / RL, % decrease from that of the positive control: Dexamethasone 15 mg/kg, glycan compounds 10 mg/kg, intratracheal microspray. How it is done: A guinea pig model of asthma was used. Guinea-pigs (8 per group) were sensitized to ovalbumin by two intraperitoneal injections of ovalbumin (grade V, 20 μg) in aluminium hydroxide gel on Days 1 and 11. On day 20 (24 hours prior to assessing airway hyper-reactivity (AHR)) each animal received a challenge dose of OVA—this took the form of a 1 hour aerosol exposure of OVA (10 μg). The negative control animals received, no sensitization and no challenge. The positive controls were sensitized and challenged but were either given no further treatment or were treated with vehicle (saline). Test compounds (PPS and the sulfated xylan pentasaccharide) and vehicle were administered by intratracheal administration as an aqueous microspray using a Penn Century device. The device used was the FMJ250 high pressure syringe and a 1A-1C microspray delivery tube. The particle size delivery goes up to 32 μm. During the study the volume delivered was 100 ul for all test formulations. The test compounds were administered 30 min before challenge with OVA. The animals underwent surgery 24 hours after challenge to insert a cannula into the trachea, the cannula was connected to the instrumentation which measured pressure and changes in airflow. After surgery the animals were allowed to stabilize for 10 min before baseline readings were taken. Bronchoconstriction was evoked with aerosolized methacholine (10 mg/ml and 30 mg/ml) for 20 seconds. The difference between baseline readings and that obtained after methacholine were used to calculate Cdyn and RL. Thus, measurements of lung function were taken approximately 25 hours after the drug was administered. Both pentosan polysulfate and the sulfated xylan pentasaccharide when administered at 10 mg/kg were effective in reducing the airway hyper-reactivity readings. Their efficacy was approximately equivalent to that usually seen with 7.5 mg/kg of dexamethasone in this model.

Series [2] relates to male C57Bl/6J mice exposed to cigarette smoke. Description: Mouse model of emphysema/COPD, chronic cigarette smoke exposure. The format is in vivo. Conditions: chronic smoke exposure 6 months, PPS once a day. The method, then: A mouse model of emphysema was used. Acute and chronic exposure of mice to cigarette smoke lead to lung responses that in part mimic the inflammatory and structural changes observed in COPD. In this model male C57Bl/6J mice are subjected to acute and chronic smoke exposure, with normal room air being the control situation. In the acute study mice were exposed to either room air or to the smoke of five cigarettes (approximately 12 mg of tar and 0.9 mg of nicotine) for 20 minutes. In the chronic study mice were exposed to either room air or to the smoke of three cigarettes/day for 5 days/week for 6 months. The 4 groups of mice were then further divided so that mice within each group also received PPS via an inhaled route.
The animals in the chronic study received PPS once a day for the duration of the experiment. At the completion of the experiment animals were killed and the lungs fixed intratracheally with formalin (5%) and lung volume was measured by water displacement. The lung tissue was prepared for histochemistry and immunohistochemistry, the lung tissues being stained for hematoxylin-eosin and/or periodic acid-Schiff or with antibodies to the macrophage marker Mac-3. The level of desmosine in the lung tissue was also determined. Desmosine is an elastin-specific imino acid; the assessment of desmosine in the lung is taken as an indicator of the lung elastin content. […]

The conditions of series [3]: relative to heparin; cited from earlier work.

Marks after values point to notes of the source that are not given here.

On to Pentosan polysulfate [PPS], for which the IC50 (usually the concentration needed to halve the response being measured) on eotaxin-2 was approximately 0.015 µM. Moreover, the “Inhibition of elastase activity on collagen (in words)” value on Elastase is recorded as “effective elastase inhibitor”. Moreover, the “Reduction of airway hyper-reactivity readings (in words)” value in series [1] (10 mg/kg intratracheal microspray 30 min before OVA challenge) is “effective”. Moreover, in series [1] (MCh 10 mg/ml), the “Cdyn, % increase from that of the positive control” value was 38% * and the “RL, % decrease from that of the positive control” value was 32%. Further, in series [1] (MCh 30 mg/ml), the “Cdyn, % increase from that of the positive control” value is 49% ** and the “RL, % decrease from that of the positive control” value is given as 35% **. For the same substance, in series [2], the “Overall effect in chronic COPD model” value is “acting as an anti-inflammatory agent”. Also, in series [3], the “Anticoagulant activity as fraction of that of heparin” value is “about 1/15”.
